Entries after “also recorded” stand apart in the source; their conditions may differ. Read-outs that look alike come from different tables or passages of the source.

Data set [1] has as its system CHO cells (wild‐type APP). In words: Cellular Aβ40 release assay. The format is cell-based. The settings on record: Cricetulus griseus, inhibition of Aβ40 release, six batches, each in triplicate. The method, then:
(§1) Cellular Aβ release assays were done in CHO cells stably transfected with human wild‐type and human APP were done as described (Neumann et al, 2015). Determinations of logD, pKa, and binding to brain homogenates were done internally at Novartis, Basel. Plasma protein binding was determined by equilibrium dialysis using diluted plasma from the corresponding species. MDR‐1‐MDCK cells were obtained from Prof. A. Berns, Netherlands Cancer Institute, Amsterdam NL, and bi‐directional transport measurements were done as described (Rueeger et al, 2011). Receptor binding assays were done against an internal receptor panel and externally at Ricerca Biosciences, Peitou, Taiwan. In vitro binding and cellular patch clamp assays for hERG were done at Preclinical Safety, Novartis, Basel.

The subject of data set [2] is CHO cells (“Swedish” APP). Nature of the data set: Cellular Aβ40 release assay. The settings on record: Cricetulus griseus, inhibition of Aβ40 release, three batches, triplicates. The format is cell-based. How it is done:
as §1

Data set [3] in a line: logD determination. The format is physicochemical. The settings on record: partition coefficient octanol/buffer pH 6.8. The method, then:
as §1

Data set [4] relates to Aβ40 and Aβ42 in dog CSF. In words: Aβ40 and Aβ42 in dog CSF after single oral dose, PK/PD modeling. The format is in vivo. The settings on record: Canis lupus familiaris. The method, then: Therefore, we measured Aβ40 in rat brain tissue 4 h after oral administration over a range of doses. […] In addition, the effect‐over‐time curves for brain and CSF almost completely superimposed, showing that Aβ pharmacodynamics in CSF mirrors very well that in brain tissue.
Electrochemiluminescence immunoassays (Mesoscale Diagnostics, Rockville, MD, USA) were used to determine Aβ38, Aβ40, Aβ42, sAPPα, and sAPPβ. For studies in normal mice and rats, the endogenous Aβ40 was extracted from the brain homogenate with 1% Triton X‐100, and the 4G8‐based assay kit was used for quantification according to the manufacturer's instructions. CSF was collected from the cisterna magna and also analyzed using the 4G8 kit. For studies in dogs, CSF was collected via a ventricular port, and the 6E10‐based Mesoscale Diagnostics kit for Aβ was used. For studies in APP23 mice, Aβ40 and Aβ42 were determined after extraction with 70% formic acid and subsequent neutralization.

Data set [5] has as its system CSF Aβ40 and sAPPβ. In words: Human CSF APP metabolites after single dose (serial CSF sampling). The format is in vivo. The source says:
We investigated CSF Aβ and sAPPβ levels in humans by serial CSF sampling via an intrathecal catheter. […] Under these conditions, where Aβ production has completely stopped, the curves most likely reflect the rate of physiological clearance of Aβ40 and sAPPβ from human CSF.
(A) Changes in Aβ40 relative to baseline values. (B) Changes in sAPPβ relative to baseline values.
Human CSF was collected from an indwelling spinal catheter inserted into the lower spinal canal (in the single ascending dose (SAD) PD first in human (FIH) study) or by a lumbar puncture (in the multiple ascending dose (MAD) PD Phase I study and Phase IIa study), and by trained personnel at the site and as per their standard operating procedure (SOP). CSF Aβ38, Aβ40, Aβ42, sAPPα, and sAPPβ were quantified in human CSF with 0.2% (v/v) Tween®‐20 using validated sandwich‐based multiplexed electrochemiluminescence methods (MesoScale Discovery, […], MD, USA).

Data set [6] can be described thus: Animal toxicology studies, any species. The format is in vivo. The method, then:
In vivo animal toxicity studies were performed according to ICH guidance for industry M3(R2) and conformed to the Institutional Animal Care and Use Guidelines for the contract laboratory and sponsor. […] Recovery was assessed after a 12‐week treatment‐free period. Beagle dogs from Marshall BKU UK, 11 months of age, were given 0 (vehicle), 5, 15, or 30 mg/kg/day for 39 weeks. Vehicle consisted of 0.5% (w/v) methylcellulose (1,500 cPS) in 0.1% (v/v) polysorbate 80 (Tween®‐80) in reverse osmosis water. At necropsy, tissues were immersion fixed in 10% neutral‐buffered formalin or modified Davidson's solution and then processed by routine methods to paraffin block and hematoxylin–eosin (H&E)‐stained histologic slides.

Setting [7] is: after a 750 mg CNP520 dose, n=6.

As a reminder, the logD is the decadic logarithm of the distribution of all forms, ionised or not, between an organic phase and buffer at a given pH. Read a high logD as higher lipophilicity. Consider `C[C@@]1(c2nc(NC(=O)c3ncc(C(F)(F)F)cc3Cl)ccc2F)CO[C@@](C)(C(F)(F)F)C(N)=N1` [CNP520], for which the IC50 in data set [1] was 2.8 ± 0.2 nM; in data set [2], 44 ± 0.4 nM; in data set [4] (read-out: IC50 in vivo (free ED50), unbound CNP520 in dog blood, PK/PD modeling estimate), 3.3 ± 0.03 nM; in data set [4] (read-out: IC50 in vivo, total CNP520 in dog blood, PK/PD modeling estimate), 103 ± 12.3 nM. Moreover, the logD in data set [3] worked out at 3.5. Moreover, in data set [5] (750-mg single dose, mean ± SD), the “maximum reduction in CSF Aβ40 from baseline” value is 79.1 ± 8.9%. In data set [5] (setting [7]), the “first-order rate constant k, Aβ40 in human CSF” value worked out at 0.068 ± 0.002 h⁻¹. The “first-order rate constant k, sAPPβ in human CSF” value in data set [5] (setting [7]) came to 0.043 ± 0.004 h⁻¹. For the same molecule, the “morphological changes in CNS, peripheral nervous system, liver, endocrine pancreas, retina, skin” value in data set [6] (any species) is listed as “No morphological changes were identified”. For the same molecule, the “depigmentation in long-term animal toxicology studies” value in data set [6] (including 9 months dosing in dogs) is given as “no signs of depigmentation; also recorded: did not result in hair depigmentation”. Besides, in data set [6] (long-term toxicological studies in rats and dogs), the retinal degeneration result is “no retinal degeneration”.

The values above are taken from article PMC6220303 (EMBO Molecular Medicine, 2018).
